The values below come from ChEMBL document CHEMBL1201862, “PubChem BioAssay data set” (2004).

Among the test systems are SW-620; COLO 205; OVCAR-3; NCI-H460; NCI/ADR-RES; HCT-116; SK-MEL-5; HCT-15; HCC 2998; PC-3; A498; A549; DU-145; NCI-H23; Hs-578T; UACC-257; CCRF-CEM; NCI-H226; SR; SNB-75.
What all share (assay): NCI-60 cell line screen, 48 h

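Assay format: 96-well plates, 48-hour exposure. Abbreviation: GI50, concentration required for 50% inhibition of growth.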 Active and inactive are the calls of the source. No stated cut-off is given here; in the data, active = GI50 up to about 1.1 µM and inactive = higher.

Regarding `O=C(NC1CCCCC1)c1nn[nH]c1Cl`, the GI50 in the assay on SW-620, in the assay on COLO 205, with OVCAR-3, in the assay on NCI-H460, in the assay on NCI/ADR-RES and with HCT-116 was > 100 µM (inactive) each time. Further, the GI50 in the assay with SK-MEL-5 was > 100 µM (inactive); in the assay with HCT-15 it was greater than 100 µM; in the assay with HCC 2998, > 100 µM (inactive); in the assay with PC-3 it was > 100 µM (inactive); in the assay with A498, > 100 µM (inactive); in the assay with A549, > 100 µM (inactive). The GI50 in the assay with DU-145, with NCI-H23, in the assay with Hs-578T, with UACC-257 and in the assay on CCRF-CEM was > 100 µM (inactive) each time.
`C=C1C(=O)OC2/C=C(\COC(C)=O)CCC(OC(C)=O)C3=CC(OC3=O)C12` (stereo not given): the GI50 with SW-620 was 1.77 µM (inactive); in the assay with COLO 205, 2.14 µM (inactive); with OVCAR-3, 4.15 µM (inactive); in the assay on NCI-H460, 19.5 µM (inactive); in the assay on HCT-116, 2.48 µM (inactive); in the assay on SK-MEL-5, 11.6 µM (inactive). Moreover, the GI50 was 2.94 µM with HCT-15; 23.9 µM (inactive) in the assay with NCI-H226; 2.3 µM (inactive) in the assay on SR; 14.4 µM (inactive) in the assay on HCC 2998; 16.4 µM (inactive) in the assay on PC-3; 16 µM (inactive) in the assay with A498. Besides, the GI50 in the assay with A549 is 20 µM (inactive); with DU-145, 36.1 µM (inactive); in the assay with SNB-75, 15.9 µM (inactive); with NCI-H23, 8.95 µM (inactive); with Hs-578T it was 24.2 µM (inactive); with UACC-257, 3.57 µM (inactive). In the assay on CCRF-CEM, the GI50 is 1.01 µM (active).
On to `COP(=O)(/C=C/C(NC(=O)C(Cl)(Cl)Cl)c1ccccc1)OC` (stereo not given), for which the GI50 in the assay with SW-620, in the assay on COLO 205, with OVCAR-3, in the assay on NCI-H460, in the assay on NCI/ADR-RES and in the assay on HCT-116 was > 100 µM (inactive) throughout. Also, the GI50 in the assay on SK-MEL-5 was > 100 µM (inactive); in the assay with HCT-15, greater than 100 µM; with NCI-H226 it was > 100 µM (inactive); in the assay on HCC 2998, > 100 µM (inactive); in the assay with PC-3, > 100 µM (inactive); in the assay with A498, > 100 µM (inactive). Further, the GI50 in the assay with A549, in the assay with DU-145, in the assay on SNB-75, in the assay on NCI-H23, in the assay on Hs-578T and in the assay with UACC-257 was > 100 µM (inactive) in each case.
Regarding `COC(=O)C1(Cc2ccccc2)Cc2ccccc2C1=O` (stereo not given), the GI50 is 55 µM (inactive) with SW-620; 49.9 µM (inactive) with COLO 205; 39.3 µM (inactive) with OVCAR-3; 46 µM (inactive) with NCI-H460; 25.7 µM (inactive) with NCI/ADR-RES; 36.1 µM (inactive) with HCT-116. In addition, the GI50 with SK-MEL-5 was 20 µM (inactive); in the assay with HCT-15, 37.2 µM; in the assay with NCI-H226, 35.6 µM (inactive); in the assay with SR, 23.8 µM (inactive); in the assay on HCC 2998 it was 42.3 µM (inactive); with PC-3, 44.9 µM (inactive). In addition, the GI50 in the assay on A549 is 32.9 µM (inactive); with DU-145, 83.4 µM (inactive); in the assay on SNB-75, 42.7 µM (inactive); in the assay on NCI-H23 it was 45.8 µM (inactive); with Hs-578T, 61.1 µM (inactive); in the assay on UACC-257, 45.8 µM (inactive). Besides, in the assay with CCRF-CEM, the GI50 was 35.8 µM (inactive).
Turning to `CC(=O)OC12c3ccccc3C(c3ccccc31)C1C(=O)N(N=C(C)C)C(=O)C12` (stereo not given), the GI50 in the assay on SW-620, with COLO 205, with OVCAR-3, in the assay with NCI/ADR-RES, in the assay on HCT-116 and in the assay on SK-MEL-5 was > 100 µM (inactive) in each case. For the same compound, the GI50 was greater than 100 µM in the assay with HCT-15; > 100 µM (inactive) in the assay with NCI-H226; > 100 µM (inactive) in the assay on SR; > 100 µM (inactive) in the assay with HCC 2998; > 100 µM (inactive) in the assay on PC-3; > 100 µM (inactive) in the assay on A549. Also, the GI50 with DU-145 was > 100 µM (inactive); in the assay on SNB-75, 51.9 µM (inactive); in the assay on NCI-H23 it was > 100 µM (inactive); in the assay with Hs-578T, > 100 µM (inactive); in the assay with UACC-257, > 100 µM (inactive); in the assay on CCRF-CEM it was > 100 µM (inactive).
For the compound `CCOc1ccc(/C=C2\NC(=S)N(/C=C3\C(=O)Oc4ccccc4C3=O)C2=O)cc1`, the GI50 is 37.8 µM (inactive) with SW-620; 15.2 µM (inactive) in the assay on COLO 205; 21.1 µM (inactive) with OVCAR-3; 21.4 µM (inactive) with NCI-H460; 23.1 µM (inactive) in the assay with NCI/ADR-RES; 19.5 µM (inactive) in the assay with HCT-116. For the same compound, the GI50 in the assay with SK-MEL-5 was 19.7 µM (inactive); in the assay on HCT-15, 20.7 µM; in the assay on NCI-H226, 24.7 µM (inactive); in the assay on HCC 2998 it was 32.1 µM (inactive); in the assay on PC-3, 18.1 µM (inactive); with A549, > 10 µM (inactive). Also, the GI50 is 22.4 µM (inactive) with DU-145; 23 µM (inactive) with SNB-75; 30 µM (inactive) with NCI-H23; 23.4 µM (inactive) with Hs-578T; 26.6 µM (inactive) in the assay with UACC-257; 15.1 µM (inactive) with CCRF-CEM.
As to `O=C(/C=C/c1ccccc1)CCC1C(=O)NC(=O)NC1=O`, the GI50 in the assay on SW-620, with COLO 205, with OVCAR-3, in the assay with NCI-H460, in the assay with NCI/ADR-RES and with HCT-116 was > 100 µM (inactive) in each case. In addition, the GI50 was > 100 µM (inactive) with SK-MEL-5; greater than 100 µM with HCT-15; > 100 µM (inactive) with NCI-H226; > 100 µM (inactive) in the assay on HCC 2998; > 100 µM (inactive) in the assay on PC-3; > 100 µM (inactive) with A498. The GI50 with A549, in the assay with DU-145, with SNB-75, in the assay on NCI-H23, in the assay on Hs-578T and with UACC-257 was > 100 µM (inactive) throughout.
Consider `CC(=N/NC(=S)N1CCCCC1)/C(C)=N\NC(=S)N1CCCCC1`, for which the GI50 in the assay on SW-620 is 2.14 µM (inactive); in the assay with COLO 205, 1.95 µM (inactive); in the assay on OVCAR-3, 1.74 µM (inactive); in the assay with NCI-H460, 1.74 µM (inactive); in the assay on NCI/ADR-RES it was 2.42 µM (inactive); in the assay on HCT-116 it was 2.34 µM (inactive). In addition, the GI50 with SK-MEL-5 is 1.57 µM (inactive); in the assay with HCT-15 it was 2.34 µM; in the assay with NCI-H226 it was 1.57 µM (inactive); in the assay on HCC 2998 it was 2.12 µM (inactive); in the assay on PC-3, 1.86 µM (inactive); in the assay on A498, 1.5 µM (inactive). For the same compound, the GI50 was 1.73 µM (inactive) with A549; 1.61 µM (inactive) with DU-145; 1.45 µM (inactive) with SNB-75; 2.13 µM (inactive) in the assay with NCI-H23; 1.85 µM (inactive) in the assay on Hs-578T; 1.87 µM (inactive) with UACC-257.
As to `O=C(NC1=C(Cl)C(=O)c2ccccc2C1=O)c1ccc(F)cc1`, the GI50 in the assay on SW-620 was 0.776 µM (active); with COLO 205, 2.44 µM (inactive); with OVCAR-3 it was 2.53 µM (inactive); with NCI-H460, 2.87 µM (inactive); in the assay on NCI/ADR-RES, 3.37 µM (inactive); in the assay on HCT-116, 0.455 µM (active). In addition, the GI50 is 0.535 µM in the assay on HCT-15; 1.1 µM (active) in the assay with NCI-H226; 3.66 µM (inactive) with SR; 3.48 µM (inactive) in the assay on HCC 2998; 1.13 µM (inactive) in the assay on PC-3; 5.37 µM (inactive) in the assay on A549. For the same compound, the GI50 in the assay with DU-145 is 4.68 µM (inactive); in the assay on SNB-75 it was 5.83 µM (inactive); in the assay on NCI-H23 it was 3.27 µM (inactive); in the assay on Hs-578T, 8.91 µM (inactive); with UACC-257 it was 1.98 µM (inactive); with CCRF-CEM, 0.802 µM (active).
Consider `Cc1ccc(N2CCc3c(C)c(C#N)c4nc5ccccc5n4c32)cc1`, for which the GI50 was 85.9 µM (inactive) in the assay on SW-620; 90.6 µM (inactive) in the assay on COLO 205; > 100 µM (inactive) with OVCAR-3; 99.1 µM (inactive) in the assay with NCI-H460; > 100 µM (inactive) in the assay with NCI/ADR-RES; > 100 µM (inactive) with HCT-116. Moreover, the GI50 was > 100 µM (inactive) in the assay on SK-MEL-5; greater than 100 µM in the assay on HCT-15; > 100 µM (inactive) with NCI-H226; 2.94 µM (inactive) with SR; > 100 µM (inactive) with HCC 2998; > 100 µM (inactive) with PC-3. Further, the GI50 was > 100 µM (inactive) with A549; > 100 µM (inactive) in the assay on DU-145; 22.7 µM (inactive) with SNB-75; > 100 µM (inactive) in the assay on NCI-H23; 16 µM (inactive) with Hs-578T; > 100 µM (inactive) in the assay on UACC-257. For the same compound, in the assay with CCRF-CEM, the GI50 was > 100 µM (inactive).
As for `O=C(NCc1ccccc1)c1nn[nH]c1O`, the GI50 in the assay on SW-620, in the assay on COLO 205, in the assay with OVCAR-3, with NCI-H460, in the assay on NCI/ADR-RES and in the assay on HCT-116 was > 100 µM (inactive) throughout. Besides, the GI50 was > 100 µM (inactive) with SK-MEL-5; greater than 100 µM in the assay on HCT-15; > 100 µM (inactive) in the assay with NCI-H226; > 100 µM (inactive) with HCC 2998; > 100 µM (inactive) in the assay on PC-3; > 100 µM (inactive) in the assay with A549. In addition, the GI50 in the assay with DU-145, in the assay with SNB-75, with NCI-H23, with Hs-578T, in the assay with UACC-257 and with CCRF-CEM was > 100 µM (inactive) in each case.
